One series relates to PI3 kinase. The series can be described thus: PI3 kinase expression in MDA-MB-468 tumors. Format: in vivo, mice. Conditions: protein unaffected by Hsp90 inhibitors.
Series [1] concerns SKBr3 breast cancer cells. Description: Growth inhibition, sulforhodamine B assay. The format is cell-based, human. Conditions: Homo sapiens, SK-BR-3, 72 h, average of 3 measurements. On the procedure: Cell culture. The human breast cancer cell lines SKBr3 and MDA-MB-468 were a gift from Dr. Neal Rosen (MSKCC). Cells were maintained in 1:1 mixture of DME:F12 supplemented with 2 mM glutamine, 50 units/mL penicillin, 50 […] and 10% heat inactivated fetal bovine serum (Gemini Bioproducts #100-10b) and incubated at 37° C., 5% CO2. Growth assays. Growth inhibition studies were performed using the sulforhodamine B assay as previously described.^29 In summary, experimental cultures were plated in microtiter plates (Nunc #167008). One column of wells was left without cells to serve as the blank control. Cells were allowed to attach overnight. The following day, growth medium having either drug or DMSO at twice the desired initial concentration was added to the plate in triplicate and was serially diluted at a 1:1 ratio in the microtiter plate. After 72 h of growth, the cell number in treated versus control wells was estimated after treatment with 50% trichloroacetic acid and staining with 0.4% sulforhodamine B in 1% acetic acid. […] Normal human renal proximal tubular epithelial (RPTEC) cells were purchased pre-seeded in 96-well plates (Clonetics, CC-3190). Upon receipt, cells were placed in a humidified incubator at 37° C., 5% CO2 and allowed to equilibrate for 3 h. Media was removed by suction and replaced with fresh media provided by the manufacturer. Cells were then treated with either drugs or DMSO for 72 h and the IC50 values were determined as described above.

A short description of series [2]: Tumor and plasma concentration in MDA-MB-468 xenografted mice. The format is in vivo. Conditions: 24 hours after intraperitoneal injection. Here is the method: (§1) Mice xenografted with MDA-MB-468 human breast cancer tumors were treated by intraperitoneal injection with Compound 5 at a dosage levels of 25, 50, 75, 100 and 150 mg/kg. The concentration of Compound 5 in the tumor 24 hours after administration was determined. […] Compound 5 was further tested for its effects on the pharmacodynamic marker Raf-1 kinase. Hsp90 stabilizes this kinase and maintains it in ready-to-be-activated conformation. Inhibition of Hsp90 leads to disruption of the complex and further ubiquitinylation and degradation of Raf-1 by the proteasome. Thus, Raf-1 degradation in tumors is a functional read-out of Hsp90 inhibition.

A further series has as its system MDA-MB-468 cells. The series can be described thus: Anti-mitotic assay (Tg-3 microtiter immunoassay). The format is cell-based, human. The settings on record: 24 h, concentration dependent increase in Tg-3 luminescence. On the procedure: Anti-mitotic assay. Black, clear-bottom microtiter 96-well plates (Corning Costar #3603) were used to accommodate experimental cultures. MDA-MB-468 cells were seeded in each well at 8,000 cells per well in growth medium (100 μL), and allowed to attach overnight at 37° C. and 5% CO2. Growth medium (100 μL) with drug or vehicle (DMSO) was gently added to the wells, and the plates were incubated at 37° C. and 5% CO2 for 24 h. Wells were washed with ice-cold TBST (2×200 μL). A house vacuum source attached to an eight-channel aspirator was used to remove the liquid from the 96-well plates. Ice-cold methanol (100 μL) was added to each well, and the plate was placed at 4° C. for 5 min. Methanol was removed by suction and plates were washed with ice-cold TBST (2×200 μL). Plates were further incubated with SuperBlock® blocking buffer (Pierce #37535) (200 μL) for 2 h at RT. The Tg-3 antibody (gift of Dr. Davies, Albert Einstein College of Medicine) diluted 1:200 in SuperBlock® was placed in each well (100 μL) except the control column that was treated with control antibody (Mouse IgM, NeoMarkers, NC-1030-P). After 72 h, wells were washed with ice-cold TBST (2×200 μL). […] Un-reacted antibody was removed by washing the plates with ice-cold TBST (3×200 μL) for 5 min on a shaker. The ECLTM Western Blotting Detection Reagents 1 and 2 in 1:1 mix (100 μL) was placed in each well and the plates were read immediately in an Analyst AD plate reader (Molecular Devices). Luminescence readings were imported into SOFTmax PROR 4.3.1. Anti-mitotic activity was defined as a concentration dependent increase in luminescence readings in compound-treated wells as compared to DMSO only treated wells.

The next series has as its system Raf-1 kinase. Description: Raf-1 protein levels in MDA-MB-468 tumors. Conditions: all dosage levels, FIG. 10B. The format is in vivo, mice. Here is the method: as §1
In the next series the test system is SKI-Chen. The series can be described thus: Growth over 96 h in therapy-resistant SCLC cells. Format: cell-based. The settings on record: from a patient who failed every conventional therapy. On the procedure:
(§2) Growth over 96 h was assessed.

The test system of series [3] is Hsp90 client proteins (Raf-1, Akt), PARP cleavage. Description: Pharmacodynamics in small cell lung tumors. Format: in vivo.
Series [4] in a line: Plasma and tumor levels in small cell lung cancer model. Conditions: tumor.
A further series concerns Hsp90 SKBr3. The series can be described thus: Hsp90 competition assay, SKBr3 cell lysate. Conditions: read-out: EC50 Hsp90 SKBr3.
The test system of the next series is U251 glioma cells. The series can be described thus: Clonogenic survival assay, radiosensitization. Format: cell-based, human. Here is the method: (§3) Colony forming efficiency was determined 10-12 days later and survival curves generated after normalizing for cell killing by Compound 9 alone. The results are summarized in FIG. 11A (Compound 9) and B (Compound 8).

Another series concerns U87 glioma cells. Description: Clonogenic survival assay, radiosensitization. Format: cell-based, human. On the procedure:
as §3

Another series relates to Hsp90 lung. Description: Hsp90 competition assay, lung homogenate.
Another series relates to H69AR. Description: Growth over 96 h in adriamycin-resistant SCLC cells. The settings on record: resistant to adriamycin. Format: cell-based. On the procedure:
as §2

A further series relates to Hsp90 heart. The series can be described thus: Hsp90 competition assay, heart homogenate.
A further series can be described thus: Solubility in PBS. The format is physicochemical. Conditions: aqueous buffer, acid addition salt form. Here is the method:
as §2

Series [5] is described as follows: Blood brain barrier penetration.
The next series relates to small cell lung tumors. The series can be described thus: Tumor growth inhibition in small cell lung cancer model. The format is in vivo.

We go through two compounds from patent publication US10167285B2, “Small-molecule HSP90 inhibitors” (Memorial Sloan Kettering Cancer Center, priority 2005, dated 2019).

Experimental for Hsp90 SKBr3: Hsp90 competition assay. Fluorescence polarization measurements were performed on an Analyst AD instrument (Molecular Devices, Sunnyvale, Calif.). […] The assay buffer (HFB) contained 20 mM HEPES (K) pH 7.3, 50 mM KCl, 5 mM MgCl2, 20 mM Na2MoO4, 0.01% NP40. Before each use, 0.1 mg/mL bovine gamma globulin (BGG) (Panvera Corporation, Madison, Wis.) and 2 mM DTT (Fisher Biotech, Fair Lawn, N.J.) were freshly added. GM-BODIPY was synthesized as previously reported^23a and was dissolved in DMSO to form 10 μM solutions. Recombinant Hsp90α was purchased from Stressgen Bioreagents (cat. No. SPP-776), (Victoria, Canada). Cell lysates were prepared rupturing cellular membranes by freezing at −70° C. and dissolving the cellular extract in HFB with added protease and phosphotase inhibitors. […] Saturation curves were recorded in which GM-BODIPY (5 nM) was treated with increasing amounts of cellular lysates.
Experimental for Hsp90 heart: (§4) Hsp90 competition assay. Fluorescence polarization measurements were performed on an Analyst AD instrument (Molecular Devices, Sunnyvale, Calif.). […] The assay buffer (HFB) contained 20 mM HEPES (K) pH 7.3, 50 mM KCl, 5 mM MgCl2, 20 mM Na2MoO4, 0.01% NP40. Before each use, 0.1 mg/mL bovine gamma globulin (BGG) (Panvera Corporation, Madison, Wis.) and 2 mM DTT (Fisher Biotech, Fair Lawn, N.J.) were freshly added. […] Cell lysates were prepared rupturing cellular membranes by freezing at −70° C. and dissolving the cellular extract in HFB with added protease and phosphotase inhibitors. Organs were harvested from a healthy mouse and homogenized in HFB. Saturation curves were recorded in which GM-BODIPY (5 nM) was treated with increasing amounts of cellular lysates.
Experimental for Hsp90 lung: as §4

As to `CC(C)NCCCn1c(Sc2cc3c(cc2Br)OCO3)nc2c(N)ncnc21` [Example 5, 8-(6-Bromo-benzo[1,3]dioxol-5-ylsulfanyl)-9-(3-isopropylamino-propyl)adenine], the “expression of PI3 kinase” value with PI3 kinase is “no change in expression”. Further, in [1], the 50% inhibitory concentration (IC50) worked out at 142 ± 22 nM. The detection in plasma result in series [2] is reported as “could not be detected”. In addition, in the series on MDA-MB-468 cells, the Anti-mitotic entry is “Yes”. Also, the “Raf-1 levels (% control)” value with Raf-1 kinase is reported as “substantial decrease”.

On to `CC(C)NCCCn1c(Sc2cc3c(cc2I)OCO3)nc2c(N)ncnc21` [Example 9, 8-(6-Iodo-benzo[1,3]dioxol-5-ylsulfanyl)-9-(3-isopropylamino-propyl)adenine], for which the “activity in resistant SCLC cell line” value with SKI-Chen and with H69AR was “retains its activity” throughout. Besides, the “apoptosis of the tumor (PARP cleavage)” value in series [3] (FIG. 9C) is reported as “induces significant apoptosis”. Further, the “Raf-1 and Akt in tumor” value in series [3] (one administered dose) was “efficiently degraded or inactivated”. For the same compound, the “retention in tumors at pharmacologic doses” value in series [4] was “more than 36 h”. Also, the concentration for a half-maximal effect (EC50) turned out to be 50.4 ± 4 nM in the series with Hsp90 SKBr3; 2400 ± 240 nM with Hsp90 lung (read-out: EC50 Hsp90 lung, normal tissue); 6900 ± 150 nM in the series with Hsp90 heart (read-out: EC50 Hsp90 heart, normal tissue). For the same compound, the results for the “surviving fraction after compound treatment only” value with U251 glioma cells (U251 cells) and with U87 glioma cells were 0.86 and 0.68, respectively. In addition, in the series with U251 glioma cells (range across U251 and U87, 16 h exposure before X rays), the dose enhancement factors is recorded as 1.4-1.6. Besides, half-maximal inhibition in [1] (IC50) was put at 50 ± 5 nM. The Lung/SKBr3 in the series on Hsp90 lung (ratio of EC50 Hsp90 values) is listed as 48. Besides, in the series on Hsp90 heart (ratio of EC50 Hsp90 values), the Heart/SKBr3 is 140. In addition, the solubility in “Solubility in PBS” is > 5 mM. In addition, the “crossing of the blood brain barrier” value in series [5] is recorded as “ability to cross the blood brain barrier”. For the same compound, the tumor growth entry in the series with small cell lung tumors (comparable to 17AAG, FIG. 9D) is recorded as “efficiently inhibited the growth”. In the series with small cell lung tumors (in vivo), the “toxicity to the host” value is reported as “without toxicity”. The Anti-mitotic entry in the series with MDA-MB-468 cells is “Yes”.
